Assays:
[1] = test system: primary epidermal keratinocytes; experiment: Radiolabeled phosphatidylglycerol formation in intact keratinocytes; type: cell-based, mouse; conditions: 100 nM PMA, 30 minutes with [3H]glycerol; p<0.01
Method: Primary epidermal keratinocytes were prepared from 1-3-day old neonatal ICR mice after trypsin flotation of the skin and mechanical separation of the epidermis from the dermis. The epidermal cells were released by scraping, collected by centrifugation and plated in 6-well dishes in a medium consisting of MEM containing 25 μM calcium, 2% dialyzed fetal bovine serum, 2 mM glutamine, 5 ng/mL EGF, ITS (6.25 μg/mL insulin+6.25 μg/mL transferrin+6.25 ng/mL selenious acid+5.35 μg/mL linoleic acid+1.25% bovine serum albumin), 100 U/mL penicillin, 100 μg/mL streptomycin and 0.25 μg/mL fungizone. After an overnight incubation, the cells were refed with serum-free keratinocyte medium (SFKM), in which 2% dialyzed fetal bovine serum was replaced with 90 μg/mL bovine pituitary extract. Cells were refed with fresh medium every 1-3 days.
For the PLD assay cultured primary keratinocytes were labeled for 20-24 hours with 2.5 μCi/ml [^3H] oleic acid. The cells were then exposed to vehicle or 100 nM PMA in the presence of 0.5% ethanol for 30 minutes. To measure the formation of radiolabeled phosphatidylglycerol, cells were treated for 24 hours with SFKM containing vehicle, 250 nM 1,25-dihydroxyvitamin D3 or 125 μM calcium and then labeled for an additional 30 minutes with 1-2.5 μCi/mL [^3H] or 0.4-0.5 μCi/mL [^14C]glycerol. For experiments investigating the extracellular calcium dependence of PG formation, cells were incubated for 24 hours in SFKM containing various calcium concentrations prior to the addition of 5 μCi/mL [^3H]glycerol for 30 minutes. In some cases, cells were stimulated with 25 μM calcium (control)—or 125 μM calcium-containing SFKM for 24 hours prior to the addition of [^14C]glycerol in the presence and absence of 1% ethanol. To measure phosphatidylglycerol formation in response to PMA, unlabeled cells were stimulated with 100 nM PMA in the presence of radiolabeled glycerol, as above. Reactions were terminated and the radiolabeled phosphatidylalcohol extracted, separated by thin-layer chromatography and quantified as described by Bollag (1998), referenced above.

[2] = test system: PLD; experiment: PLD activity (radiolabeled phosphatidylethanol formation in [3H]oleate-prelabeled keratinocytes); type: cell-based, mouse; conditions: 100 nM PMA, 30 minutes, 0.5% ethanol; p<0.02
Method: Near-confluent keratinocytes were incubated without radiolabel (for phosphatidylglycerol production) or pre-labeled with 2.5 μCi/mL [^3H]oleate (for phosphatidylethanol formation) for 20-24 hours. The cells were then stimulated for 30 minutes with vehicle (0.05-0.1% DMSO; Con) or 100 nM PMA in the presence of [^3H]glycerol (for phosphatidylglycerol production), or in the presence of 0.5% ethanol (for phosphatidylethanol formation). Reactions were terminated by the addition of 0.2% SDS (±5 mM EDTA) and radiolabeled phosphatidylglycerol (PG), or phosphatidylethanol (PEt) was extracted, separated by thin-layer chromatography and quantified. Values are expressed as -fold over control and represent the means±SEM of three separate experiments performed in duplicate or triplicate; *p<0.02 versus the appropriate control by an unpaired Student's t-test.
For the PLD assay cultured primary keratinocytes were labeled for 20-24 hours with 2.5 μCi/ml [^3H] oleic acid. The cells were then exposed to vehicle or 100 nM PMA in the presence of 0.5% ethanol for 30 minutes. […] Reactions were terminated and the radiolabeled phosphatidylalcohol extracted, separated by thin-layer chromatography and quantified as described by Bollag (1998), referenced above.

[3] = test system: primary keratinocytes; experiment: [3H]Glycerol uptake; type: cell-based, mouse; conditions: 30 minutes pretreatment with 100 nM PMA, then [3H]glycerol 5 minutes
Method: Confluent primary keratinocytes were incubated for 30, 60, 90, 120, 300 or 600 seconds with SFKM containing 20 mM HEPES (for additional pH buffering), 1 μCi/mL [^3H]glycerol and 0.1% DMSO (control) or 100 nM PMA. Reactions were terminated by washing three times with ice-cold phosphate-buffered saline lacking divalent cations. The cells were subsequently solubilized in 0.3 M NaOH and aliquots of this extract subjected to liquid scintillation counting. Counts obtained from duplicate samples at each time point were averaged and graphed, and a linear equation was determined for each condition. Correlation coefficients obtained were typically 0.99 or greater (mean correlation coefficient for control was 0.992±0.002 and for PMA, 0.994±0.001). Slopes obtained from multiple experiments were averaged and analyzed statistically for significant differences between conditions.
The linearity of glycerol uptake determined above allowed measurement of uptake at a single time point to determine the effects of other treatments on this process. Thus, confluent keratinocytes were preincubated for 30 minutes with 0.1% DMSO (control) or 100 nM PMA prior to measuring [^3H]glycerol uptake as above but at 5 minutes only. Similarly, near-confluent primary keratinocytes were incubated for 24 hours with SFKM containing various calcium concentrations prior to measurement of radiolabeled glycerol uptake for 5 minutes.
Near-confluent keratinocyte cultures were incubated for 24 hours in SFKM (25 μM calcium) or SFKM containing 125 μM calcium (125 μM Ca^2+-SFKM) and the glycerol uptake assay performed as previously described in Zheng & Bollag (2003). Briefly, cells were incubated with SFKM containing 20 mM HEPES (for additional pH buffering) and 1 μCi/mL [^3H] glycerol for 5 minutes, since it has previously been shown that this time point is in the linear range of [^3H]glycerol uptake (Zheng & Bollag (2003). Reactions were terminated by rapidly washing three times with ice-cold phosphate-buffered saline lacking divalent cations (PBS-). Cells were then solubilized in 0.3 M NaOH and [^3H]glycerol uptake quantified by liquid scintillation spectroscopy.

[4] = target: T1, PLD-2 (Homo sapiens, UniProt O14939); experiment: In vitro assay of phosphatidylglycerol formation by PLD-2 (transphosphatidylation); type: biochemical
T1 construct: purchased Onyx Pharmaceuticals; host or cells: Sf9 insect cells (membrane preparation)
Method: FIGS. 5 A and B illustrate that glycerol serves as a substrate for phospholipase D in the transphosphatidylation reaction in vitro. Liposomes were prepared from [^3H-dipalmitoyl]phosphatidylcholine, phosphatidylethanolamine, phosphatidylcholine and phosphatidylinositol 4,5-bisphosphate by sonication. Glycerol at the indicated concentrations in the absence (A) or presence of 1% ethanol (B) was added to the reaction mix. Reactions were initiated by the addition of Sf9 PLD2-overexpressing membranes (1 μg protein), incubated for 30 minutes at 37° C. and terminated by the addition of 0.2% SDS (±5 mM EDTA). Lipids were extracted, separated, and quantified. The figure is representative of at least two additional experiments. There was some variability in the absolute levels of phosphatidic acid (PA), PG and phosphatidylethanol (PEt) formed, likely due to variations in the extent of formation of multilamellar vesicles during sonication.
PLD-2 activity was measured in vitro with [^3H-palmitoyl]phosphatidylcholine as substrate. […] Lipids were extracted according to the method of Bligh and Dyer and radiolabeled phospholipids separated and quantified, as described in W. B. Bollag, “Measurement of phospholipase D activity, Methods” Mol. Biol. 105 (1998) 151-160, incorporated herein by reference.

[5] = test system: keratin 5 promoter; experiment: Co-transfection analysis, keratin 5 promoter-luciferase reporter; type: cell-based, mouse; conditions: glycerol 0.2%, 24 hours
Method: FIGS. 15A-B illustrate that glycerol, but not xylitol or sorbitol, inhibits DNA synthesis and enhances the inhibitory effect of an elevated extracellular Ca^2+ concentration. (A) Near-confluent keratinocytes were incubated for 24 hours with 0.02 or 0.1% glycerol and DNA synthesis measured as the incorporation of [^3H] thymidine incorporation into DNA. (B) Near-confluent keratinocytes were incubated for 24 hours with the indicated concentrations of glycerol (G, squares) or equivalent concentrations of xylitol (X, circles) in SFKM containing 25 μM (control; open symbols) or 125 μM Ca^2+ (Ca^2+; closed symbols). (C) Near-confluent keratinocytes were incubated for 24 hours with the indicated concentrations of glycerol (G) or equivalent concentrations of sorbitol (S, triangles) in SFKM containing 25 μM (control; open symbols) or 125 μM Ca^2+ (Ca^2+; closed symbols) for 24 hours. [^3H]Thymidine incorporation into DNA was then determined. Values represent the means±SEM of 4 to 5 separate experiments performed in duplicate; *p<0.05, **p<0.01 versus the control value, †p<0.05 versus the value in the presence of Ca^2+ alone. […] After 24 hours cells were refed with medium containing no addition (control) or 0.2% glycerol for an additional 24 hours. Luciferase activity was then measured using a Dual Luciferase kit as directed by the manufacturer. […] The blots were quantified using the Kodak molecular imaging software. […]
The keratin 5 and keratin 10 promoter-luciferase constructs were provided by of Dr. Bogi Andersen (University of California, Irvine, Calif.); the involucrin promoter-luciferase construct was provided by Dr. Daniel Bikle (University of California, San Francisco, Calif.). […] Luciferase activity was then measured using the Dual Luciferase Reporter Assay kit (Promega, Madison, Wis.) as directed by the manufacturer.

[6] = test system: rapidly dividing keratinocytes; experiment: Assay of DNA synthesis ([3H]thymidine incorporation) in rapidly dividing keratinocytes; type: cell-based; conditions: 24 hours
Method: Keratinocytes were prepared from ICR CD-I outbred mice in accordance with a protocol approved by the Institutional Animal Care and Use Committee. Briefly, the skins were harvested and incubated overnight in 0.25% trypsin at 4° C. The epidermis and dermis were separated and basal keratinocytes scraped from the underside of the epidermis. The cells were collected by centrifugation and incubated overnight in an atmosphere of 95% air/5% carbon dioxide at 37° C. in plating medium as described in Dodd M E, Ristich V L, Ray S, Lober R M, Bollag W B (2005) Regulation of protein kinase D during differentiation and proliferation of primary mouse keratinocytes. J Invest Dermatol 125:294-306, incorporated herein by reference. The plating medium was replaced with serum-free keratinocyte medium (SFKM) also as in Dodd, et al., and the cells were refed every 1-2 days with fresh medium until use.
[^3H]Thymidine incorporation into DNA was determined as a measure of DNA synthesis as previously described by Griner, et al., above. Near-confluent keratinocyte cultures were incubated for 24 hours in SFKM containing the indicated additions. PG was added in the form of liposomes prepared by bath sonication of dried PG in SFKM to make a stock solution of 2 mg/mL. [^3H]Thymidine at a final concentration of 1 μCi/mL was then added to the cells for an additional 1-hour incubation. Reactions were terminated by washing with PBS- and macromolecules precipitated with ice-cold 5% trichloroacetic acid. Cells were solubilized in 0.3 M NaOH and the radioactivity incorporated into DNA quantified by liquid scintillation spectroscopy.
[^3H]Thymidine incorporation was used as a measure of DNA synthesis and was performed as described in Example 2. Liposomes containing PG and functional derivatives thereof were prepared by bath sonication as described in Example 2, with the exception that different concentrations of material were employed.

[7] = test system: ICR CD1 mice; experiment: Wound healing of full-thickness skin punch biopsies; type: in vivo, mouse; conditions: topical; 2M glycerol in water, or 100 μg/mL phosphatidylglycerol liposomes in PBS-
From the text: This example presents recent data on the effects of glycerol and phosphatidylglycerol treatment on wound healing obtained in ICR CD1 mice. Two full-thickness skin punch biopsies of˜4 mm were made on the backs of a total of sixteen mice. […] The rate of wound healing was then followed over four days by digital photography and computer image analysis.

[8] = test system: AQP3 null mutant mouse; conditions: studies of the AQP3 null mutant mouse; cited from earlier work

T1 sequence (O14939 whole entry, species assumed): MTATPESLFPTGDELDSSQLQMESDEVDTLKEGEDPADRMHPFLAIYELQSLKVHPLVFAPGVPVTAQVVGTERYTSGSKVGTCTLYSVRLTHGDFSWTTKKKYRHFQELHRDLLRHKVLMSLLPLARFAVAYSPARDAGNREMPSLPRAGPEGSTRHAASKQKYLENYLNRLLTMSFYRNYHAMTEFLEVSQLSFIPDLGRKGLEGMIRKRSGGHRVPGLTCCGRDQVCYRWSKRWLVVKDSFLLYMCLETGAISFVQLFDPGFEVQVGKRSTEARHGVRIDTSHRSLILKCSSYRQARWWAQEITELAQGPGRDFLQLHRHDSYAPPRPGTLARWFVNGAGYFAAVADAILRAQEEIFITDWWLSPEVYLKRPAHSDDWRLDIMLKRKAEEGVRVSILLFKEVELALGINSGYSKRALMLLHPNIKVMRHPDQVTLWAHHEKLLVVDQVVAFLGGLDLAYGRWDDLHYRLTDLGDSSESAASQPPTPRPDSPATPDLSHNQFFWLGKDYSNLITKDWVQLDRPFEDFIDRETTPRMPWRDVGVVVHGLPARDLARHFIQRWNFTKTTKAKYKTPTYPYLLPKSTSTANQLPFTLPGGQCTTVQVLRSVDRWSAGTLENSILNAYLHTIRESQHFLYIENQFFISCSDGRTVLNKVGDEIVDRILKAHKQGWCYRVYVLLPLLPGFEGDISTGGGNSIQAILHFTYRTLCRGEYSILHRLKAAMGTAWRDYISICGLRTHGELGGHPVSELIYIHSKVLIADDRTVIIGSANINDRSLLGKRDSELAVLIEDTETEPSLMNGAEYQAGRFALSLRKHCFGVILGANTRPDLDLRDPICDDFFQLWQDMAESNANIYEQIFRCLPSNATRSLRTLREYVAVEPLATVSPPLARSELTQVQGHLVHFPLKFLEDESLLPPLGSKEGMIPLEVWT

| Structure (SMILES) | PG production [1] | PLD activity (radiolabeled phosphatidylethanol formation) [2] | glycerol uptake [3] | formation of PG from phosphatidylcholine (glycerol as substrate for transphosphatidylation) ([4]; PLD2-overexpressing Sf9 membranes, 30 minutes at 37° C.) | competition with ethanol in the transphosphatidylation reaction ([4]; in presence of 1% ethanol) | reduction in keratin 5 promoter activity ([5]; empty vector) | reduction in keratin 5 promoter activity ([5]; keratinocytes transfected with AQP3) | effect on DNA synthesis in presence of 125 μM Ca2+ ([6]; 125 μM Ca2+ medium) | effect on DNA synthesis ([3H]thymidine incorporation into DNA) ([6]; control (25 μM Ca2+) medium) | lowest concentration that significantly inhibited DNA synthesis ([6]; 0.02% = 2.73 mM) | rate of wound healing (percentage on day 4 relative to day 1) [7] | correction of the epidermal phenotype of the knockout model [8] |
| --- | --- | --- | --- | --- | --- | --- | --- | --- | --- | --- | --- | --- |
| CCCCCCCCCCCCCC(=O)O[C@@H]1[C@@H](C)[C@@]2(O)[C@@H](C=C(CO)C[C@]3(O)C(=O)C(C)=C[C@@H]23)[C@@H]2C(C)(C)[C@]12OC(C)=O [PMA, Phorbol 12-myristate 13-acetate] | decrease in PG production | large increase in PLD activity | decrease in glycerol uptake | – | – | – | – | – | – | – | – | – |
| OCC(O)CO [glycerol] | – | – | – | PLD2 catalyzed the formation of PG from phosphatidylcholine in the presence of glycerol | could compete with the primary alcohol ethanol to generate PG in place of phosphatidylethanol | ~9% | ~47% | enhanced the inhibitory effect of 125 μM Ca^2+ | inhibited DNA synthesis | 0.02% | improved the rate of wound healing | could correct the epidermal phenotype |

Reference: patent US8808715B1, “Methods and compositions for modulating keratinocyte function” (Georgia Regents Research Institute, Inc, priority 2004, dated 2014)
